The values below come from patent US20230257376A1, “ROCK INHIBITOR, AND PREPARATION METHOD THEREFOR AND USE THEREOF” (WUHAN LL SCIENCE AND TECHNOLOGY DEVELOPMENT CO., LTD., priority 2020, published 2023).

The target in series [1] is T1, ROCK2 kinase (Homo sapiens, UniProt O75116).
T1 construct: purchased Invitrogen PV3759
Briefly: In vitro evaluation of ROCK2 kinase activity (HTRF KinEASE-STK time-resolved fluorometric assay). Particulars: ROCK2 kinase 0.4 ng/μL, ATP 6.739 μM. Format: biochemical. A digest of the protocol:
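Recombinant kinase (0.4 ng/μL final) preincubated 0.5 h at RT with compound (1% DMSO), then 2 h with 6.739 μM ATP and 1 μM biotinylated STK substrate 2 (final). HTRF readout via STK antibody-cryptate/streptavidin-XL665 after ~1 h; buffer 5 mM MgCl2, 1 mM DTT.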

Series [2] in a line: In vitro metabolic stability, rat liver microsome incubation. Format: in vitro ADME. Particulars: liver microsomes, 1 mg/mL protein, 37° C., read-out: T1/2 in rat liver microsome. The procedure:
(§1) The in vitro metabolic stability of the compounds disclosed herein was determined through incubation of liver microsomes of various species. A proper amount of test compound was added into a liver microsome reaction system (1 mg/mL liver microsome protein, 25 U/mL glucose-6 phosphate dehydrogenase, 1 mM NADP, 6 mM D-glucose 6-phosphate and 5 mM MgCl2), and then the mixture was incubated in a water bath kettle at 37° C. to start reaction. At each time point, 100 μL of the reaction liquid was added into a centrifuge tube containing 400 μL of internal standard working solution (containing a 200 ng/mL solution of dexamethasone, diclofenac, tolbutamide and labetalol in acetonitrile) precooled at 0° C. so as to stop the reaction, and the mixture was then centrifuged at 10,000 g for 10 min at 4° C. The supernatant was collected for LC-MS assay so as to obtain the values of in vitro metabolic half-life of the test compounds in liver microsomes of various species.
A general note: Microsomes from liver hold many membrane-bound enzymes, among them those of drug oxidation.

A short description of series [3]: In vitro cytotoxicity assay in HepG2 cells using the CCK-8 method. As to conditions: human. Format: cell-based. The procedure:
In vitro cytotoxicity assay for the compounds disclosed herein was performed in HepG2 cells using the CCK-8 method. HepG2 cells (Beina Bio) in the logarithmic growth phase were collected, the concentration of cell suspension was adjusted, and then the cells were plated on a 96-well cell culture plate at 50,000 cells/well. The cells were then incubated overnight in a cell incubator (5%, 37° C.), and after 80-90% cell confluence was achieved, test compound at each concentration gradient or vehicle (DMSO) was added after medium change. The resulting mixture was incubated in the cell incubator (5%, 37° C.) for 48 h. After the treatment, the medium in the plate was discarded. The plate was washed twice with PBS, added with CCK-8 working solution (Beyotime) at 100 μL per well, and then incubated at 37° C. for 1.5 h in the dark. Absorbance at OD450 nm mil was measured for each well on a microplate reader, and CC50 value of each compound was analyzed and calculated.

For series [4], the target named is T2, ROCK1 kinase (Homo sapiens, UniProt Q13464).
T2 construct: purchased Invitrogen
T2 sequence (Q13464 whole entry): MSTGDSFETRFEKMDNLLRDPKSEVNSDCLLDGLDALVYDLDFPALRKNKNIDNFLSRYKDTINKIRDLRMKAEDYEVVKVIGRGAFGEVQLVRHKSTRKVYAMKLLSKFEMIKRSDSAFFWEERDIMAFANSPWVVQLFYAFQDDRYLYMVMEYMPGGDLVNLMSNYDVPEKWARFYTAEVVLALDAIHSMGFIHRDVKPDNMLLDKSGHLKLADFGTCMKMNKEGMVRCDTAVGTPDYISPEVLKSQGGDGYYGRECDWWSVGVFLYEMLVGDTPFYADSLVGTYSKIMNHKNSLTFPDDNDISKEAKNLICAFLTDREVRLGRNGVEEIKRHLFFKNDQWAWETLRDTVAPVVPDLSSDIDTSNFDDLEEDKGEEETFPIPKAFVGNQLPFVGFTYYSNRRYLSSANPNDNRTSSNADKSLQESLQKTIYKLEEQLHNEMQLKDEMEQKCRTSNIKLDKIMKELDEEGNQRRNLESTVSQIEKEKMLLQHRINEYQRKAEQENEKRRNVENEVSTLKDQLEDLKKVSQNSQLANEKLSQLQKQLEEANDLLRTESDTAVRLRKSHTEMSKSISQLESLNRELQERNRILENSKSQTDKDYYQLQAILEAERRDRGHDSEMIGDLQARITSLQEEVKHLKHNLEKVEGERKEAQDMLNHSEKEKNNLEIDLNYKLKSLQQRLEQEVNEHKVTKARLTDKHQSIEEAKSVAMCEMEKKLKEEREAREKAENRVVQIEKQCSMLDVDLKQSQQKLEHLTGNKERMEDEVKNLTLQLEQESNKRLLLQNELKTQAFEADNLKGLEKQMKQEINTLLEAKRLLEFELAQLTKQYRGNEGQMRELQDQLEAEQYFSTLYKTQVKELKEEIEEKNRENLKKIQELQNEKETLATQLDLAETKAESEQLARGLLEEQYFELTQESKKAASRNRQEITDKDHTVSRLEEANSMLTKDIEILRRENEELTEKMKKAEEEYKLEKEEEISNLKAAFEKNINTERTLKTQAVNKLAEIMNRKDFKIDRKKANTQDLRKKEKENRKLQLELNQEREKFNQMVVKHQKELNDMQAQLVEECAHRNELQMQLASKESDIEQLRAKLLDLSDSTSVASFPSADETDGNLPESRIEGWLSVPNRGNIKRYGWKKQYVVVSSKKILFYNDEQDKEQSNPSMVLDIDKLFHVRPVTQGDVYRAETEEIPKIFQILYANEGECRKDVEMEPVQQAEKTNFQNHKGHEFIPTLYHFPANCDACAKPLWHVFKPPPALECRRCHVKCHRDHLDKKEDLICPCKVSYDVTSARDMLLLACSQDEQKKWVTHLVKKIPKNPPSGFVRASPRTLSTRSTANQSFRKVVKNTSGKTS
Briefly: In vitro evaluation of ROCK1 kinase selectivity (HTRF KinEASE-STK time-resolved fluorometric assay). Format: biochemical. Particulars: ROCK1 kinase 0.4 ng/μL, ATP 3.53 μM. In a few lines: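 HTRF KinEASE-STK assay with ROCK1 at 0.4 ng/μL final, preincubated with compound (1% DMSO) 0.5 h at room temperature. Reaction ran 2 h at room temperature with 3.53 μM ATP and 1 μM biotinylated STK-substrate 2, then detection via STK antibody-cryptate/streptavidin-XL665 after ~1 h.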
In general terms: TR-FRET usually uses a lanthanide donor and a delayed reading to cut background.

A short description of series [5]: In vitro metabolic stability, guinea pig liver microsome incubation. It counts as in vitro ADME. As to conditions: liver microsomes, 1 mg/mL protein, 37° C., read-out: T1/2 in guinea pig liver microsome. The procedure: as §1
The nature of series [6]: In vitro metabolic stability, human liver microsome incubation. It counts as in vitro ADME. As to conditions: liver microsomes, 1 mg/mL protein, 37° C., read-out: T1/2 in human liver microsome. The procedure: as §1
Series [7] is described as follows: In vivo pharmacokinetic study in mice. As to conditions: mouse, plasma; for AUC(0-t) / Cmax: 1 mg/kg. The source says:
[…] After administration, plasma of mice was collected at specific time points, and the concentration of the compound in the plasma was detected by LC-MS/MS (AB SCIEX Qtrap4500). The PK parameters of the compounds were statistically analyzed and calculated (WinNonlin V5.2, Pharsight) to show the pharmacokinetic properties of the compounds disclosed herein in mice.

Some results are limits rather than exact numbers.

T1 sequence (O75116 whole entry): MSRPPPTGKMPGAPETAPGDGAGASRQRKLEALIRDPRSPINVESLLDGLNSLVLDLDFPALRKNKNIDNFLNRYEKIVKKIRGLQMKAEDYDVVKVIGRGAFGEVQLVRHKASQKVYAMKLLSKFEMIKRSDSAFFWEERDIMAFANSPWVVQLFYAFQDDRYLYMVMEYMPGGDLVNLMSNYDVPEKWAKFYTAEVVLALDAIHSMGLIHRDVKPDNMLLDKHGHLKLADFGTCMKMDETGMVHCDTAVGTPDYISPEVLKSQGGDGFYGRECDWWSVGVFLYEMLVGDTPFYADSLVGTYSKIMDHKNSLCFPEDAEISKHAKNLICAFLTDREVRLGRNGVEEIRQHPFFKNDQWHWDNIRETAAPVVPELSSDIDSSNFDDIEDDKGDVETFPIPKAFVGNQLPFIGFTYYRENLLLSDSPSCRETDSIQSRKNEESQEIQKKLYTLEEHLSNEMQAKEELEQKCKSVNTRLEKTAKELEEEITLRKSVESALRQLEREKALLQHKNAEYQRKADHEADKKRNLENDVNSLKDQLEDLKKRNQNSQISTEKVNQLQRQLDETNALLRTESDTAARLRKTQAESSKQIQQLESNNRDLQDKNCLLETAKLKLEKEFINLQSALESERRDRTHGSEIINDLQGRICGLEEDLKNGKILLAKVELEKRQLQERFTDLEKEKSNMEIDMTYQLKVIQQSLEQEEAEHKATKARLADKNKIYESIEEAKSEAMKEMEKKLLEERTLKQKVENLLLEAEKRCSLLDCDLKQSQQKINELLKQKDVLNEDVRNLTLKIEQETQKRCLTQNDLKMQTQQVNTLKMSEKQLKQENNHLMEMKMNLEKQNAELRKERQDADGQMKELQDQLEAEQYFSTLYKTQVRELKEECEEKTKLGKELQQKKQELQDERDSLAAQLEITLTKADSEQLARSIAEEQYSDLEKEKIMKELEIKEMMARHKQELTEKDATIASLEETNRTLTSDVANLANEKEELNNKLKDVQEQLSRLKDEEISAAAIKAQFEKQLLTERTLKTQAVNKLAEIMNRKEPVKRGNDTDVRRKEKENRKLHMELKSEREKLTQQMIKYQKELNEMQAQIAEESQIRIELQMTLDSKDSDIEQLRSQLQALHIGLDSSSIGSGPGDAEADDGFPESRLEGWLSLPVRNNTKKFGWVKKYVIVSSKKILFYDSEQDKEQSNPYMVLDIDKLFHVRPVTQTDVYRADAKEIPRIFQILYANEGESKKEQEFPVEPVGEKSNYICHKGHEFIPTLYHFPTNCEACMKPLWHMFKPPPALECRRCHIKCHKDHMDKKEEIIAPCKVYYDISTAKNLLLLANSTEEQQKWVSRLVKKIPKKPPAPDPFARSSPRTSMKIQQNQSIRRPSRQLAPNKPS

A word on the IC50: it is the concentration at which inhibition is half-maximal. Low readings indicate greater potency, high ones weaker potency. One may read the CC50 as the concentration giving 50% cytotoxicity. Read a low CC50 as harm at low concentration. A word on the bioavailability: it is the share of a dose that reaches the circulation, judged against a reference dose that is usually intravenous. Low values mean poor availability, high ones good availability. One may read the AUC(0-t) as the area under the concentration-time curve up to a stated or last time point. Read a low AUC(0-t) as low exposure. For orientation: Cmax means the highest concentration seen after dosing. For the compound `Cn1c(C(=O)N2CC(F)(F)C2)cc2c1CN(c1nccc(Nc3ccc(-c4cn[nH]c4)cc3)n1)CC2` [Compound L005, (6-(4-((4-(1H-pyrazol-4-yl)phenyl)amino)pyrimidin-2-yl)-1-methyl-4,5,6,7-tetrahydro-1H-pyrrolo[2,3-c]pyridin-2-yl)(3,3-difluoroazetidin-1-yl)methanone], the IC50 in series [1] was at most 0.05 µM; in series [4], over 4.5 µM. Further, the half-life in series [2] worked out at 1.72 h; in series [5], 1.08 h; in series [6], 2.92 h. Besides, in series [3], the CC50 at 48 h was over 100 µM. Moreover, the bioavailability in series [7] (1 mg/kg Po (fasted) vs 1 mg/kg Iv) stood at 59.7%. In addition, the values for the AUC(0-t) in series [7] (Iv) and in series [7] (Po (fasted)) were 120 ng·h/mL and 71.8 ng·h/mL, respectively. In addition, the results for the Cmax in series [7] (Iv) and in series [7] (Po (fasted)) were 155 ng/mL and 37.2 ng/mL, respectively.
